Source: patent US6323235A, “Benzene-condensed heterocyclic derivatives and their uses” (priority 1995, dated 2001)

Experiments:
[1] = test system: platelet aggregation induced by TXA2 agonist U-46619; assay: Platelet Aggregation-inhibition Action 1 (U-46619-induced, platelet-rich plasma); type: cell-based; conditions: U-46619 1-4 μM final, PRP, compound added one minute before U-46619
Protocol: Platelet Aggregation-inhibition Action 1
(§1) Blood collected from medial cubital vein is centrifuged at 800 rmp for 10 minutes and the upper portion of the resultant is collected as platelet-rich plasma (PRP). The PRP is dividedly poured into small test tubes and a TXA2 agonist U-46619 is added thereto (final concentration: 1-4 μM) so as to induce platelet aggregation. The degree of platelet aggregation is measured in terms of change in turbidity by a platelet aggregation measuring apparatus (Hematoracer, NIKO BIOSCIENCE). The compound is added one minute before the addition of U-46619 and the concentration of the compound at which the aggregation is inhibited by 50% is calculated as IC50 value.

[2] = test system: platelet aggregation induced by ADP; assay: Platelet Aggregation-Inhibition Action 2 (ADP-induced, platelet-rich plasma); type: cell-based; conditions: ADP 1-3 μM final, PRP, compound added one minute before ADP
Protocol: Platelet Aggregation-Inhibition Action 2
as §1, with “PRP).” for “(PRP).”, “ADP” for “a TXA2 agonist U-46619”, “1-3” for “1-4”, “Hematoracer,” for “(Hematoracer,”, “ADP” for “U-46619 and”

TXA2 receptor = target: T1, TXA2 receptor (Oryctolagus cuniculus, UniProt Q6WQI8); assay: TXA2 Receptor Binding Test 1 ([3H]SQ29548, washed rabbit platelets); set-up: species or system New Zealand White rabbit; conditions: [3H]SQ29548 3 nM, rabbit washed platelets 10 mg/ml, 25° C., 60 minutes
T1 sequence (Q6WQI8 1-233): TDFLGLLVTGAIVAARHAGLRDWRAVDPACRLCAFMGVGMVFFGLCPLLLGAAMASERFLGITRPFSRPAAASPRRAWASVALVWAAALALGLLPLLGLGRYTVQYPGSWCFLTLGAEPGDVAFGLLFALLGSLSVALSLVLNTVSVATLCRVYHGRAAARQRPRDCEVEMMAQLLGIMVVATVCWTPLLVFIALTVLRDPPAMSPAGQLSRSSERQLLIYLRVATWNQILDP
Protocol: TXA2 Receptor Binding Test 1
Blood from a New Zealand White rabbit is taken in a vessel containing ACD solution (prepared by dissolving 1.175 g of sodium citrate, 0.685 g of citric acid and 1 g of dextrose in 50 ml of distilled water) and centrifuged at 180×g for 10 minutes at room temperature to obtain platelet-rich plasma. The obtained platelet-rich plasma is centrifuged at […] at room temperature to precipitate platelets. The platelets are then suspended in 50 mM Tris-HCl buffer (pH 7.2, containing 0.154M of NaCl) and the suspension is centrifuged at 2800×g for 15 minutes at 4° C. These operations are repeated twice to prepare washed platelets and the concentration of the platelets are adjusted to a final concentration of 10 mg/ml (wet weight).
As the ligand of TXA2, tritium-labelled SQ29548 ([^3 H]SQ29548) is used. In the antagonism test, 20 μl of [^3 H]SQ29548 having a final concentration of 3 nM is added to 500 μl of a platelet suspension having a platelet concentration of 10 mg/ml and 2.6 μl of a solution of a test compound dissolved in an appropriate solvent is added thereto. After incubating the resulting mixture at 25° C. for 60 minutes, the mixture is filtered through a glass filter by the cell harvester method. After washing the filter with 50 mM Tris-HCl buffer (3×4 ml), the radioactivity of the filter is measured by a scintillation counter, thereby measuring the amount of the [^3 H]SQ29548 bound to platelets. In the saturation test, 20 μl of [^3 H]SQ29548 is added to a final concentration of 0.1-50 nM and 2.6 μl of BM13505 having a final concentration of 1 μM is added so as to check non-specific binding, followed by carrying out the binding test. The concentration of the test compound at which binding of [^3 H]SQ29548 is inhibited by 50% is determined as the IC50 value.
The results of the evaluation of the activities of the compounds of the present invention by this method are summarized d in Table 3.

Row | SMILES | IC50 [1] | IC50 [2] | IC50 (TXA2 receptor)
1 | O=C(O)COc1cccc2c(CNS(=O)(=O)CCOc3ccccc3)coc12 [Example 4] | 1100 nM |  | 
2 | O=C(O)COc1cccc2c(CNS(=O)(=O)CCc3ccccc3)coc12 [Example 8, (3-(((2-phenylethyl)sulfonylamino)methyl)benzofuran-7-yloxy)acetic acid] | 1000 nM | 305000 nM | 
3 | O=C(O)COc1cccc2c(CNS(=O)(=O)CCCc3ccccc3)coc12 [Example 9, (3-((3-phenylpropylsulfonylamino)methyl)benzofuran-7-yloxy)acetic acid] | 300 nM |  | 4.46 nM
4 | O=C(O)COc1cccc2c(CNS(=O)(=O)c3ccc4ccccc4c3)coc12 [Example 13] | 7200 nM |  | 29.2 nM
5 | Cc1oc2c(OCC(=O)O)cccc2c1CNS(=O)(=O)CCCc1ccccc1 [Example 17, (3-(((3-phenylpropyl)sulfonylamino)methyl)-2-methylbenzofuran-7-yloxy)acetic acid] | 140 nM |  | 1.92 nM
6 | CC(C)c1oc2c(OCC(=O)O)cccc2c1CNS(=O)(=O)CCc1ccccc1 [Example 19, (3-(((2-phenylethyl)sulfonylamino)methyl)-2-isopropylbenzofuran-7-yloxy)acetic acid] | 1400 nM |  | 788 nM
7 | Cc1oc2c(OCC(=O)O)cccc2c1CCNS(=O)(=O)Cc1ccccc1 [Example 24, (3-(2-(benzylsulfonylamino)ethyl)-2-methylbenzofuran-7-yloxy)acetic acid] | 88 nM |  | 18.6 nM
8 | Cc1oc2c(OCC(=O)O)cccc2c1CCNS(=O)(=O)CCc1ccccc1 [Example 25, (3-(2-(2-phenylethylsulfonylamino)ethyl)-2-methylbenzofuran-7-yloxy)acetic acid] | 140 nM |  | 4.79 nM
9 | Cc1oc2c(OCC(=O)O)cccc2c1CC[S+]([O-])CCc1ccccc1 (stereo not drawn) [Example 32, (3-(2-(2-phenylethylsulfinyl)ethyl)-2-methylbenzofuran-7-yloxy)acetic acid] | 1600 nM |  | 569 nM
10 | Cc1oc2c(OCC(=O)O)cccc2c1CCS(=O)(=O)CCc1ccccc1 [Example 33, (3-(2-(2-phenylethylsulfonyl)ethyl)-2-methylbenzofuran-7-yloxy)acetic acid] | 1100 nM |  | 91.9 nM
11 | Cc1oc2c(OCC(=O)O)cccc2c1CCON=C(c1ccccc1)c1ccccc1 [Example 35, (3-(2-(diphenylmethyleneaminoxy)ethyl)-2-methylbenzofuran-7-yloxy)acetic acid] | 4500 nM | 7800 nM | 
12 | O=C(O)COc1cccc2c(CCOCC(=O)c3ccccc3)coc12 [Example 47, (3-(2-(2-oxo-2-phenylethoxy)ethyl)benzofuran-7-yloxy)acetic acid] |  |  | 3670 nM
13 | C[C@@H](COCc1coc2c(OCC(=O)O)cccc12)c1ccccc1 [Example 51, (R)-(3-((2-phenylpropyloxy)methyl)benzofuran-7-yloxy)acetic acid] |  |  | 229 nM
14 | Cc1oc2c(OCC(=O)O)cccc2c1CCSC(c1ccccc1)c1ccccc1 [Example 81, (3-(2-(diphenylmethylthio)ethyl)-2-methylbenzofuran-7-yloxy)acetic acid] | 640 nM | 4500 nM | 
15 | O=C(O)COc1cccc2c(CCSC(c3ccccc3)c3ccccc3)c(CO)oc12 [Example 83, (2-hydroxymethyl-3-(2-(diphenylmethylthio)ethyl)benzofuran-7-yloxy)acetic acid] | 460 nM | 3300 nM | 
16 | O=C(O)COc1cccc2c(CCSC(c3ccccc3)c3ccccc3)c(CCO)oc12 [Example 85] | 620 nM | 750 nM | 
17 | O=C(O)COc1cccc2c(CCCSC(c3ccccc3)c3ccccc3)coc12 [Example 91, (3-(3,3-diphenylmethylthiopropyl)benzofuran-7-yloxy)acetic acid] |  | 1900 nM | 
18 | Cc1ccc(S(=O)(=O)NCCn2ccc3c(OCC(=O)O)cccc32)cc1 [Example 103] | 1300 nM |  | 3.09 nM
19 | O=C(O)COc1cccc2c1ccn2CCOCC(c1ccccc1)c1ccccc1 [Example 109, (1-(2-(2,2-diphenylethoxy)ethyl)indole-4-yloxy)acetic acid] |  | 27900 nM | 
20 | O=C(O)COc1cccc2c1ccn2CCSC(c1ccccc1)c1ccccc1 [Example 112, (1-(2-(diphenylmethylthio)ethyl)indole-4-yloxy)acetate] | 840 nM | 4500 nM | 
21 | O=C(O)COc1cccc2c1CCN2CCOCC(c1ccccc1)c1ccccc1 [Example 122, (1-(2-(2,2-diphenylethoxy)ethyl)indoline-4-yloxy)acetic acid] | 1400 nM | 2700 nM | 
22 | O=C(O)COc1cccc2c1CCN2CCSC(c1ccccc1)c1ccccc1 [Example 125, (1-(2-(diphenylmethylthio)ethyl)indoline-4-yloxy)acetic acid] | 720 nM | 3100 nM | 

Next, values leading:

Row | IC50 [1] | IC50 [2] | IC50 (TXA2 receptor) | SMILES
23 | 4000 nM |  | 69.6 nM | O=C(O)COc1cccc2c(CCOC(c3ccccc3)c3ccccc3)coc12 [Example 43, (3-(2-(diphenylmethoxy)ethyl)benzofuran-7-yloxy)acetate]
24 |  |  | 596 nM | O=C(O)COc1cccc2c(CCOCc3ccc(-c4ccccc4)cc3)coc12 [Example 46, (3-(2-(4-phenylbenzyloxy)ethyl)benzofuran-7-yloxy)acetic acid]
25 |  | 8200 nM |  | O=C(O)COc1cccc2c(COCC(c3ccccc3)c3ccccc3)coc12 [Example 49, (3-((2,2-diphenylethoxy)methyl)benzofuran-7-yloxy)acetic acid]
26 |  |  | 2020 nM | O=C(O)COc1cccc2c(COC(Cc3ccccc3)Cc3ccccc3)coc12 [Example 53, (3-((1-benzyl-2-phenylethoxy)methyl)benzofuran-7-yloxy)acetic acid]
27 | 330 nM | 600 nM |  | O=C(O)COc1cccc2c(COCCOC(c3ccccc3)c3ccccc3)coc12 [Example 59, (3-((2-(diphenylmethoxy)ethoxy)methyl)benzofuran-7-yloxy)acetic acid]
28 | 510 nM | 730 nM |  | O=C(O)COc1cccc2c(CCSCC(c3ccccc3)c3ccccc3)coc12 [Example 88, (3-(2-(2,2-diphenylethylthio)ethyl)benzofuran-7-yloxy)acetic acid]
29 | 710 nM |  |  | O=C(O)COc1cccc2c(COCC=C(c3ccccc3)c3ccccc3)coc12 [Example 94, (3-((3,3-diphenyl-2-propenyloxy)methyl)benzofuran-7-yloxy)acetic acid]
30 | 1600 nM | 3400 nM |  | C[C@H](COC(c1ccccc1)c1ccccc1)OCc1coc2c(OCC(=O)O)cccc12 [Example 97, (R)-(3-((2-(diphenylmethoxy)-1-methylethoxy)methyl)benzofuran-7-yloxy)acetic acid]
31 | 1500 nM | 1800 nM |  | O=C(O)COc1cccc2c(CC(O)CCC(c3ccccc3)c3ccccc3)coc12 (stereo not drawn) [Example 101, (3-(2-hydroxy-5,5-diphenylpentyl)benzofuran-7-yloxy)acetic acid]
32 | 18000 nM |  |  | O=C(O)COc1cccc2cc(COCCOC(c3ccccc3)c3ccccc3)oc12 [Example 130, (2-(2-diphenylmethoxyethoxymethyl)benzofuran-7-yloxy)acetic acid]
